Source: patent US20170216252A1, “ANTI-BACTERIAL PYRUVATE KINASE MODULATOR COMPOUNDS, COMPOSITIONS, USES AND METHODS” (SIMON FRASER UNIVERSITY, priority 2014, published 2017)
≈ marks a conversion by molar mass, not a printed value. Where two headings read alike, the source gives them in different places.

Legend:
MRSA PK = target: T1, MRSA PK (Staphylococcus aureus, UniProt Q6GG09); assay: MRSA PK activity, continuous LDH-coupled assay; type: biochemical, S. aureus (MRSA strain Sanger 252); settings: for inhibition at 10 µM / inhibition at 1 µM: read-out: % inhibition at the highest concentration tested (IC50); for fold more potent: compared to 10a
T1 construct: His tag (pET-28a(+) vector) (N); made in house; host or cells: E. coli BL-21 (DE3)
T1 sequence (Q6GG09 whole entry): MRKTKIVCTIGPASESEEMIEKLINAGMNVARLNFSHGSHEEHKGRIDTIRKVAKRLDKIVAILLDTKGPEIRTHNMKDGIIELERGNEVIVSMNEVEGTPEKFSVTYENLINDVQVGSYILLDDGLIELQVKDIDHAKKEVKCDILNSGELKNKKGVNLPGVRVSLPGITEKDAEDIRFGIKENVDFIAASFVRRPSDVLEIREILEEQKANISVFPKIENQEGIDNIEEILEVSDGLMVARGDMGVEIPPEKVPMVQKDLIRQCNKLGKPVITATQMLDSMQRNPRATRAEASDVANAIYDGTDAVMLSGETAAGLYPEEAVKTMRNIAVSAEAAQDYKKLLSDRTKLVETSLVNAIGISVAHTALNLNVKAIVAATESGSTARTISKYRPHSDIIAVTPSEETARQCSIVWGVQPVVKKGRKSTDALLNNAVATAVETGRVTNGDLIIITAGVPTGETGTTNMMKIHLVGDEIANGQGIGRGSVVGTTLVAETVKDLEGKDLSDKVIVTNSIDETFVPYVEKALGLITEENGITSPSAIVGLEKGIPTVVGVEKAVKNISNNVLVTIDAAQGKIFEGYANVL
Outline: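 Purified His-tagged MRSA PK (15 nM, E. coli-expressed) started reactions run up to 5 min at 30 °C. Activity was followed continuously by LDH-coupled NADH oxidation at 340 nm, with DMSO ≤1%. IC50 came from four-parameter variable-slope fits.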

S. aureus ATCC 29213 = assay: In vitro susceptibility, broth microdilution MIC; type: cell-based, Staphylococcus aureus; settings: for MIC: Staphylococcus aureus, read-out: MIC
Outline: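 The MIC against S. aureus 29213 was determined by CLSI 2-fold serial broth microdilution in Mueller Hinton broth. Plates were incubated for 18–24 h at 37 °C and read at OD600 with background subtracted. The MIC was the lowest concentration giving complete growth inhibition versus compound-free wells.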

[1] = Tables 1-6, 2 mM ADP, 10 mM PEP, 15 nM PK, read-out: IC50
[2] = ATCC29213, Tables 1-6 and text, minimum concentration to give >98% inhibition of growth
[3] = ATCC29213, Table 8, tested at least in duplicate, differing values all given

| SMILES | IC50 (MRSA PK; [1]) [nM] | melting point | MIC (S. aureus ATCC 29213; [2]) [µg/mL] | IC50 (MRSA PK) [nM] | also measured |
| --- | --- | --- | --- | --- | --- |
| Clc1ccc2[nH]c(-c3cc4ccc(Br)cc4[nH]3)cc2c1 [Compound 10d, 6′-Bromo-5-chloro-1H,1′H-2,2′-biindole] | 2 | 257 to 259 °C | 0.3 (≈ 0.868 µM) |  |  |
| Brc1ccc2cc(-c3cccc(-c4cc5ccccc5[nH]4)c3)[nH]c2c1 [Compound 33f, 2-(3-(1H-indol-2-yl)phenyl)-6-bromo-1H-indole] |  | 224 to 226 °C |  |  | inhibition at 10 µM (MRSA PK): 36% |
| Cn1c(-c2cc3cc(Br)ccc3[nH]2)cc2ccc(Br)cc21 [Compound 12b, 5′,6-Dibromo-1-methyl-1H,2′H-2,2′-biindole] |  | 192 to 194 °C |  |  | inhibition at 10 µM (MRSA PK): 25% |
| Brc1ccc2cc(-c3cc4ccccc4s3)[nH]c2c1 [Compound 22c, 2-(Benzo[b]thiophen-2-yl)-6-bromo-1H-indole] | 14 | 250 to 252 °C | > 64 |  |  |
| Brc1ccc2[nH]c(-c3nc4ccc(Br)cc4s3)cc2c1 [Compound 22g, 6-Bromo-2-(5-bromo-1H-indol-2-yl)benzo[d]thaizole] | 4.1 | 246 to 248 °C | > 64 |  | fold more potent (MRSA PK): about 5 fold |
| Brc1ccc2[nH]c(-c3cc4ccccc4s3)cc2c1 [Compound 22f, 2-(Benzo[b]thiophen-2-yl)-5-bromo-1H-indole] |  | 269 to 271 °C | > 64 |  | inhibition at 1 µM (MRSA PK): 42% |
| Fc1ccc2[nH]c(-c3cc4ccc(Br)cc4[nH]3)cc2c1 [Compound 10e, 6′-Bromo-5-fluoro-1H,1′H-2,2′-biindole] | 2.8 | 246 to 248 °C | 0.3 (≈ 0.911 µM) |  |  |
| Brc1ccc2cc(-c3cc4ccccc4[nH]3)[nH]c2c1 [Compound 10a, 6-Bromo-1H,1′H-2,2′-biindole] | 21.4 | 199 to 201 °C | 2 (≈ 6.43 µM) |  | fold more potent in the MIC assay (S. aureus ATCC 29213; compared to 10b): about 8 fold |
| O=C(Cn1c(-c2cc3ccc(Br)cc3[nH]2)cc2cc(Br)ccc21)N1CCOCC1 [Compound 15, 2-(5,6′-dibromo-1H,1′H-[2,2′-biindol]-1-yl)-1-morpholinoethanone] | 6 | 320 to 322 °C | > 64 |  |  |
| Brc1ccc2[nH]c(-c3nc4ccccc4s3)cc2c1 [Compound 22d, 2-(5-Bromo-1H-indol-2-yl)benzo[d]thiazole] | 358 | 208 to 210 °C | > 64 |  |  |
| Brc1ccc2[nH]c(-c3cc4ccccc4o3)cc2c1 [Compound 22e, 2-(Benzofuran-2-yl)-5-bromo-1H-indole] |  | 236 to 238 °C |  |  | inhibition at 10 µM (MRSA PK): 45% |
| CC(=O)c1c(-c2cc3ccccc3[nH]2)[nH]c2cc(Br)ccc12 [Compound 91, 1-(6-bromo-1H,1′H-[2,2′-biindol]-3-yl)ethan-1-one] |  |  | 4 (≈ 11.3 µM) | 7.7 |  |
| O=C(c1cc2ccc(Br)cc2[nH]1)c1cc(Br)ccc1O [Compound 87, (6-Bromo-1H-indol-2-yl)(5-bromo-2-hydroxyphenyl)methanone] |  |  | > 64 |  | inhibition at 10 µM (MRSA PK): 58% |
| Brc1cc2cc(-c3cc4ccccc4[nH]3)[nH]c2cc1Br [Compound 10j, 5,6-Dibromo-1H,1′H-2,2′-biindole] |  | 233 °C (dec.) |  |  | inhibition at 10 µM (MRSA PK): 39% |
| COC(=O)c1cc(Br)cc2[nH]c(-c3cc4c(C(=O)OC)cc(Br)cc4[nH]3)cc12 [Compound 163, Dimethyl 6,6′-dibromo-1H,1′H-[2,2′-biindole]-4,4′-dicarboxylate] |  |  |  | 50 to 100 | MIC (S. aureus ATCC 29213; [3]): > 64 µg/mL |
| Brc1ccc2cc(CSc3nc4ccccc4[nH]3)[nH]c2c1 [Compound 148, 2-(((6-Bromo-1H-indol-2-yl)methyl)thio)-1H-benzo[d]imidazole] |  |  |  | > 1000 | MIC (S. aureus ATCC 29213; [3]): 32 µg/mL (≈ 89.3 µM) |
| COc1ccc(/C=C/c2cc3ccc(Br)cc3[nH]2)nc1 [Compound 107, (E)-6-Bromo-2-(2-(5-methoxypyridin-2-yl)vinyl)-1H-indole] |  |  |  | 50 to 100 | MIC (S. aureus ATCC 29213; [3]): > 64 µg/mL |
| Brc1ccc2cc(-c3ccc(-c4cc5ccc(Br)cc5[nH]4)s3)[nH]c2c1 [Compound 33b, 2,5-bis(6-bromo-1H-indol-2-yl)thiophene] |  |  | > 64 |  | inhibition at 1 µM (MRSA PK): 28% |
| O=C(Nc1nc2ccc(Br)cc2s1)c1cc2cc(Br)ccc2[nH]1 [Compound 82, 5-Bromo-N-(6-bromobenzo[d]thiazol-2-yl)-1H-indole-2-carboxamide] |  |  | > 64 | 22.5 |  |
| COCn1c(-c2cc3ccc(Br)cc3[nH]2)cc2cc(Br)ccc21 [Compound 12c, 5,6′-Dibromo-1-(methoxymethyl)-1H,1′H-2,2′-biindole] | 1.9 | 199 to 201 °C | > 64 |  |  |
| Brc1ccc2cc(C#Cc3cc4ccccc4[nH]3)[nH]c2c1 [Compound 25a, 2-((1H-indol-2-yl)ethynyl)-6-bromo-1H-indole] | 7.1 | 240 to 242 °C | > 64 |  | fold more potent (MRSA PK): 3 fold |

| SMILES | IC50 (MRSA PK; [1]) [nM] | melting point | MIC (S. aureus ATCC 29213; [2]) [µg/mL] | IC50 (MRSA PK) [nM] | also measured |
| --- | --- | --- | --- | --- | --- |
| Brc1ccc2c(c1)cc(-c1cc3ccc(Br)cc3[nH]1)n2CCN1CCCCC1 [Compound 72, 5,6′-dibromo-1-(2-(piperidin-1-yl)ethyl)-1H,1′H-2,2′-biindole] |  | 102 to 104 °C | > 64 | 3.7 |  |
| COc1ccc2[nH]c(-c3cc4ccc(Br)cc4[nH]3)cc2c1 [Compound 10f, 6′-Bromo-5-methoxy-1H,1′H-2,2′-biindole] | 2.5 | 240 to 241 °C | > 64 |  |  |
| Clc1ccc(/C=C/c2cc3ccc(Br)cc3[nH]2)cn1 [Compound 98, (E)-6-Bromo-2-(2-(6-chloropyridin-3-yl)vinyl)-1H-indole] |  |  |  | < 50 | MIC (S. aureus ATCC 29213; [3]): > 64 µg/mL |
| Brc1ccc2[nH]c(CCc3cc4ccc(Br)cc4[nH]3)cc2c1 [Compound 28b, 6-bromo-2-(2-(5-bromo-1H-indol-2-yl)ethyl)-1H-indole] | 6.3 | 208 to 210 °C | > 64 |  |  |
| Brc1ccc2cc(-c3ccc(-c4ccn[nH]4)s3)[nH]c2c1 [Compound 81, 2-(5-(1H-Pyrazol-5-yl)thiophen-2-yl)-6-bromo-1H-indole] |  |  | 0.5 (≈ 1.45 µM) | 74.5 |  |
| Brc1ccc(-c2c[nH]c3cc(Br)ccc23)cc1 [Compound 57, 6-bromo-3-(4-bromophenyl)-1H-indole] | 102 |  | 2 (≈ 5.7 µM) |  |  |
| C(=C\c1cc2ccccc2[nH]1)/c1cc2ccccc2[nH]1 [Compound 44] |  |  | > 64 |  | inhibition at 10 µM (MRSA PK): 63% |
| O=C(O)c1c(-c2cc3cc(Cl)ccc3[nH]2)[nH]c2cc(Br)ccc12 [Compound 162, 6-bromo-5′-chloro-1H,1′H-[2,2′-biindole]-3-carboxylic acid] |  |  |  | < 50 | MIC (S. aureus ATCC 29213; [3]): 4 µg/mL (≈ 10.3 µM) |
| O=C(Nc1ccc(Br)cc1)c1cc2ccccc2[nH]1 [Compound 52] |  |  | > 32 |  | inhibition at 10 µM (MRSA PK): 67% |
| Cc1ccc(/C=C/c2cc3ccc(Br)cc3[nH]2)cn1 [Compound 106, (E)-6-Bromo-2-(2-(6-methylpyridin-3-yl)vinyl)-1H-indole] |  |  |  | > 1000 | MIC (S. aureus ATCC 29213; [3]): > 64 µg/mL |
| Clc1ccc(CCc2cc3ccc(Br)cc3[nH]2)cn1 [Compound 120, 6-Bromo-2-(2-(6-chloropyridin-3-yl)ethyl)-1H-indole] |  |  |  | 50 to 100 | MIC (S. aureus ATCC 29213; [3]): > 64 µg/mL |
| O=C(Nc1nc2ccc(Br)cc2[nH]1)c1cc2cc(Br)ccc2[nH]1 [Compound 79, 5-bromo-N-(6-bromo-1H-benzo[d]imidazol-2-yl)-1H-indole-2-carboxamide] |  |  | > 64 | 3.5 |  |
| O=C(c1c(CCc2cc(Cl)cc(Cl)c2)[nH]c2cc(Br)ccc12)C(F)(F)F [Compound 171, 1-(6-Bromo-2-(3,5-dichlorophenethyl)-1H-indol-3-yl)-2,2,2-trifluoroethanone] |  |  |  | > 1000 | MIC (S. aureus ATCC 29213; [3]): 1 µg/mL (≈ 2.15 µM) |
| O=C(Nc1cccc(Br)c1O)c1cc2ccc(Br)cc2[nH]1 [Compound 64, 6-Bromo-N-(3-bromo-2-hydroxyphenyl)-1H-indole-2-carboxamide] | 116 |  | > 64 |  |  |
| CC(=O)c1c(CCc2cn3c(n2)CCCC3)[nH]c2cc(Br)ccc12 [Compound 127, 1-(6-Bromo-2-(2-(5,6,7,8-tetrahydroimidazo[1,2-a]pyridin-2-yl)ethyl)-1H-indol-3-yl)ethan-1-one] |  |  |  | > 100000 | MIC (S. aureus ATCC 29213; [3]): 64 µg/mL (≈ 166 µM) |
| COC(=O)c1c(NCc2cn3ccccc3n2)[nH]c2cc(Br)ccc12 [Compound 166, Methyl 6-bromo-2-(imidazo[1,2-a]pyridin-2-ylmethylamino)-1H-indole-3-carboxylate] |  |  |  | > 1000 | MIC (S. aureus ATCC 29213; [3]): > 64 µg/mL |
| Brc1ccc2cc(/C=C/c3cc4ccc(Br)cc4[nH]3)[nH]c2c1 [Compound 27b, (E)-1,2-bis(6-bromo-1H-indol-2-yl)ethane] | 3.9 |  | > 64 |  |  |
| Brc1ccc2[nH]c(/C=C/c3cc4ccc(Br)cc4[nH]3)cc2c1 [Compound 27c, (E)-6-bromo-2-(2-(5-bromo-1H-indol-2-yl)vinyl)-1H-indole] | 4.1 |  | > 64 |  |  |
| O=C(Nc1nc2ccc(Br)cc2s1)c1cccc(Br)c1O [Compound 70, 3-Bromo-N-(6-bromobenzo[d]thiazol-2-yl)-2-hydroxybenzamide] | 42.9 |  | 4 (≈ 9.34 µM) |  |  |
| Brc1ccc(-c2cccc(-c3cc4ccccc4[nH]3)c2)cc1 [Compound 59, 2-(4′-Bromo-[1,1′-biphenyl]-3-yl)-1H-indole] |  |  | > 64 |  | inhibition at 10 µM (MRSA PK): 54% |
